In ChEMBL document CHEMBL1201862, “PubChem BioAssay data set” (2004):
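96-well plates; 48 h exposure; 5 concentrations. Endpoints by linear interpolation between flanking doses. Not reached: highest tested concentration assigned. GI50: concentration for 50% inhibition of growth.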 The source made the active and inactive calls. Cut-off read from the data, not from the text of the source: active = GI50 up to about 1.1 µM and inactive = higher.

Tests used:
Assay in all cases: inhibition of tumour cell growth, NCI panel, 48 h
IGROV-1 = system: IGROV-1
Malme-3M = system: Malme-3M
SN12C = system: SN12C
HCT-116 = system: HCT-116
UACC-257 = system: UACC-257
HOP-62 = system: HOP-62
SW-620 = system: SW-620
U-251 = system: U-251
A549 = system: A549
SF-268 = system: SF-268
NCI-H460 = system: NCI-H460
OVCAR-5 = system: OVCAR-5
KM12 = system: KM12
SNB-19 = system: SNB-19
SK-MEL-5 = system: SK-MEL-5
EKVX = system: EKVX
RXF 393 = system: RXF 393
OVCAR-8 = system: OVCAR-8
TK-10 = system: TK-10
NCI/ADR-RES = system: NCI/ADR-RES

Row | SMILES | GI50 (IGROV-1) | GI50 (Malme-3M) | GI50 (SN12C) | GI50 (HCT-116) | GI50 (UACC-257) | GI50 (HOP-62) | GI50 (SW-620) | GI50 (U-251) | GI50 (A549) | GI50 (SF-268) | GI50 (NCI-H460) | GI50 (OVCAR-5) | GI50 (KM12) | GI50 (SNB-19) | GI50 (SK-MEL-5) | GI50 (EKVX) | GI50 (RXF 393) | GI50 (OVCAR-8) | GI50 (TK-10) | GI50 (NCI/ADR-RES)
1 | O=C(Cc1ccccc1)Nc1nc2ccc(Cl)cc2c2nc(-c3ccco3)nn12 | > 21.6 µM (inactive) | 53.7 µM (inactive) | > 100 µM (inactive) | 14.8 µM (inactive) | > 100 µM (inactive) | 16.4 µM (inactive) | > 100 µM (inactive) | 16.8 µM (inactive) | > 100 µM (inactive) | > 62.8 µM (inactive) | > 100 µM (inactive) | > 100 µM (inactive) | > 100 µM (inactive) | > 35.7 µM (inactive) | 89.5 µM (inactive) | > 70.8 µM (inactive) | 17.7 µM (inactive) | > 57.9 µM (inactive) | > 35.1 µM (inactive) | > 41.2 µM (inactive)
2 | Oc1cn(-c2ccc(Cl)cc2)nc1-c1nnc(-c2ccccc2)o1 | 0.989 µM (active) | 8.34 µM (inactive) | 1.43 µM (inactive) | 0.0769 µM (active) | 1.63 µM (inactive) | 0.132 µM (active) | 1.94 µM (inactive) | 0.2 µM (active) | 0.118 µM (active) | 0.34 µM (active) | 0.236 µM (active) | 1.58 µM (inactive) | 0.0847 µM (active) | 3.03 µM (inactive) | 0.268 µM (active) | 1.16 µM (inactive) | 1.14 µM (inactive) | 0.277 µM (active) | 0.17 µM (active) | 0.215 µM (active)
3 | Oc1ccc(C(=C(Br)c2ccccc2)c2ccc(O)cc2)cc1 | 4.45 µM (inactive) | 5.52 µM (inactive) | 5.92 µM (inactive) | 4.25 µM (inactive) | 12.6 µM (inactive) | 10.4 µM (inactive) | 3.57 µM (inactive) | 4.51 µM (inactive) | 4.4 µM (inactive) | 4.9 µM (inactive) | 11.1 µM (inactive) | 17.3 µM (inactive) | 3.61 µM (inactive) | 5.15 µM (inactive) | 3.47 µM (inactive) | 11.5 µM (inactive) | 12.1 µM (inactive) | 6.58 µM (inactive) | 13.8 µM (inactive) | 3.32 µM (inactive)
4 | Cc1ccnn1CCc1ccc(Cl)cc1Cl | 29.6 µM (inactive) | 30.1 µM (inactive) | 11.8 µM (inactive) | 47.5 µM (inactive) | 34.4 µM (inactive) | 15 µM (inactive) | 54.8 µM (inactive) | 29.1 µM (inactive) | 27.6 µM (inactive) | 27 µM (inactive) | 27.2 µM (inactive) | 32.4 µM (inactive) | 27 µM (inactive) | 28.6 µM (inactive) | 19 µM (inactive) | 2.31 µM (inactive) | 9.91 µM (inactive) | 27.9 µM (inactive) | 20.8 µM (inactive) | 6.82 µM (inactive)
